Measured values taken from US8541029B2, “Article and method for focused delivery of therapeutic and/or diagnostic materials” (Armark Authentication Technologies, LLC, priority 2006, dated 2013).

Experiment: Isolated temperature response of component materials to microwave RF
Assay type: physicochemical
Details: 130 Watts for 60 seconds; for P1 60 seconds ° F.: initial 68 ° F.
Procedure: The microcells were suspended as an aqueous sample while exposed to microwave RF. Both water and mineral oil were evaluated as a liquid medium to expose microcell samples. 500 milligram samples of each microcell component were dispersed in both water and mineral oil and exposed to 130 watts of microwave RF for 60 seconds to determine the preferred fluid medium to carry out the experiment.
Microwave RF exposure was performed in a Panasonic 1300 Watt Inverter Technology® Microwave Oven Model NN-SN667W at 130 Watts. The oven was retrofitted with all quartz platforms to reduce/eliminate dipole induction heating from standard glass structures. All containment and experimental material other than water or albumen in contact with the experimental samples was microwave transparent. Containment devices such as test tubes, slides, and cover slips were either quartz or microwave transparent plastics. Microwave oven use was limited to less than 90 minutes per test period to reduce/prevent incidental heating of the oven chamber. A 500 milliliter water “reservoir-load” was maintained within the oven chamber to absorb microwave energy and prevent magnetron damage. All tests were run in an environmentally-controlled room at about 65° F. (about 18.3° C.) and 50% RH.

ΔT ° F. (500 mg in 10 g Mineral Oil): 0 ° F. | P1 60 seconds ° F. (500 mg in 10 g Mineral Oil): 68 ° F. | ΔT ° F. (500 mg in 10 g Water): 22 ° F. | P1 60 seconds ° F. (500 mg in 10 g Water): 90 ° F.
Compound: CC(=O)Nc1ccc(O)cc1 [Acetaminophen, acetaminophen]
